From PubChem BioAssay (NCI) come the findings set out here.

Holding throughout (test): DTP human tumour cell line panel, 48 h
The test system of test [1] is SK-MEL-2 melanoma.
The test system of test [2] is CCRF-CEM leukemia.
Test [3] concerns MDA-MB-231 breast.
In test [4] the test system is OVCAR-4 ovarian.
In test [5] the test system is SF-268 CNS.
Test [6] has as its system HOP-62 NSCLC.
For test [7], the system named is MALME-3M melanoma.
Test [8] relates to NCI-H460 lung.
For test [9], the system named is OVCAR-3 ovarian.
Test [10] relates to PC-3 prostate.

Where “and” joins values, the source holds several entries; their conditions need not be identical. Equal values may be shown once.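 Grown in 96-well plates, cells were treated for 48 hours with each compound at five concentrations. Insufficient inhibition: endpoint recorded as highest concentration tested. At the GI50, growth is halved. TGI is the concentration that stops growth completely.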

The TGI is the concentration at which net growth stops. Read a high TGI as lower sensitivity of the cells. As a reminder, the GI50 is the concentration at which growth is held to half of that of the control.

`CCOc1cc2c(NCCCN(CCO)CCO)ncnc2c(OCC)c1OCC`: the TGI in test [1], in test [2], in [3], in test [4], in test [5] and in [6] was greater than 100 µM each time. Also, the TGI in test [7], in test [8], in test [9] and in test [10] was greater than 100 µM in each case.

For `ClC(Cl)c1nc(-c2cccnc2)n2nc(-c3ccccc3)cc2n1`, the GI50 in test [2] is 2.32 µM; in [3], 1.98 µM; in test [4], 2.03 µM; in test [5], 2.28 µM; in [6] it was 1.69 µM; in test [7], 1.59 µM. The GI50 in test [8] is 1.09 µM; in [9], 1.61 µM; in test [10] it was 1.71 µM. In addition, the TGI was greater than 100 µM in test [2]; 5.07 µM in [3]; 5.78 µM in test [4]; 5.76 µM in [5]; 6.44 µM in [6]; 3.25 µM in test [7]. Moreover, the TGI in test [8] came out at 4.21 µM; in test [9], 4.16 µM; in [10], 4.68 µM.

As for `Cn1c(=O)c(Oc2ccccc2F)cc2cnc(NC3CCOCC3)nc21`, the GI50 in test [1], in test [2], in [3], in test [4], in test [5] and in test [6] was greater than 25 µM throughout. The GI50 in test [7], in [8], in test [9] and in test [10] was greater than 25 µM each time. In addition, the TGI in test [1], in [2], in test [3], in test [4], in [5] and in test [6] was greater than 25 µM throughout. The TGI in test [7], in test [8], in test [9] and in test [10] was greater than 25 µM throughout.

In the case of `COc1ccccc1NC(=O)n1nc(N)c2ccccc21`, the GI50 is greater than 100 µM in test [1]; greater than 100 µM in test [2]; 66 µM in [3]; greater than 68.1 µM in [4]; greater than 48.1 µM in test [5]; greater than 69.3 µM in test [6]. The GI50 in test [7] was greater than 100 µM; in test [8] it was 47.6 µM; in test [9], greater than 100 µM; in test [10], 64.1 µM. In addition, the TGI in test [1], in [2], in [3], in test [4], in test [5] and in test [6] was greater than 100 µM each time. Moreover, the concentration for total growth inhibition (TGI) in test [7], in [8], in [9] and in test [10] was greater than 100 µM each time.

With `COc1cc2c3c(c1)c1cc(OC)c(OC)cc1c[n+]3CC2`, the GI50 in [1] was 16.7 µM; in test [2], 69.8 µM; in [3], greater than 100 µM; in test [4], 18.2 µM; in test [5], 0.351 µM; in test [6], 3.24 µM. Also, the GI50 in test [7] is 2.71 µM; in test [9] it was 17.7 µM; in test [10], 29.9 µM. Further, the TGI in test [1] is 50 µM and 71.3 µM; in test [2], greater than 100 µM; in test [3], greater than 100 µM; in test [4], 50 µM and > 100 µM; in test [5], 3.3 µM and 3.8 µM; in test [6] it was 50 µM and > 100 µM. The TGI in test [7] was 7.93 µM and 13 µM; in [8], 47.8 µM; in [9], 50 µM and > 100 µM; in test [10] it was 50 µM and > 100 µM.

As for `C=C1C(=O)O[C@H]2[C@H]1CC/C(COC(=O)NCc1ccc(Cn3c(=O)sn(CCCCl)c3=O)cc1)=C\CC[C@@]1(C)O[C@@H]21`, the GI50 in [1] is 4.83 µM; in [2], 0.577 µM; in [3], 1.72 µM; in [4], 1.67 µM; in [5], 2.63 µM; in test [6], 13.9 µM. Also, the GI50 in test [7] was 1.34 µM; in test [8], 11.3 µM; in test [9], 0.776 µM; in test [10], 2.13 µM. The TGI in [1] was found to be 17.4 µM; in test [2], 4.03 µM; in [3], 3.33 µM; in [4] it was 3.83 µM; in [5], 10.3 µM; in [6] it was 27.5 µM. Further, the TGI in test [7] was determined as 3.05 µM; in [8] it was 30.5 µM; in [9], 2.09 µM; in test [10], 5.05 µM.

Regarding `O=C1C=C(Br)C(=O)C12CCc1ccccc12` (stereo unspecified), the TGI was 54.2 µM in test [1]; greater than 27.5 µM in test [2]; 70.2 µM in [3]; 52.4 µM in test [4]; 58.7 µM in test [5]; 69 µM in test [6]. The TGI in test [7] was determined as 29.5 µM; in [8] it was 48 µM; in test [9], 41.8 µM; in test [10] it was 32.5 µM.

For the compound `C[C@]1(CO)[C@H]2CC[C@@]34C=C[C@@](CO)(CC[C@H]3[C@]2(C)CC[C@H]1O)C4`, the TGI in test [1], in [2], in [3], in test [4], in test [5] and in test [6] was greater than 100 µM in each case. The TGI in [7], in test [9] and in test [10] was greater than 100 µM each time.

With `CCCCNN`, the TGI in test [1], in test [2], in [3], in test [4], in test [6] and in [7] was greater than 100 µM each time. Also, the TGI in test [9] and in [10] was greater than 100 µM throughout.

`Cc1nc2sc(C(=O)Nc3cccc4ccccc34)c(N)c2cc1C(=O)c1ccccc1`: the GI50 in test [1] is 3.92 µM; in test [2], 1.66 µM; in test [3], 2.19 µM; in [4], 3.21 µM; in test [5], 3.54 µM; in [6], 2.53 µM. For the same compound, the figures for the GI50 in test [7], in test [8] and in test [10] were 3.86 µM, 0.727 µM and 1.78 µM, respectively. Also, the TGI in test [1], in [2], in test [3], in test [4], in test [5] and in test [6] was greater than 50 µM in each case. For the same compound, the values for the TGI in [7], in [8] and in test [10] were greater than 50 µM, 6.32 µM and greater than 50 µM, respectively.

Take `Cc1nc2ccc(Nc3nc(NCCN4CCOCC4)nc(Nc4ccc(F)cc4)n3)cc2n1Cc1ccccc1`: the GI50 in test [1] was 2.16 µM; in test [2], 2.27 µM; in [3] it was 1.71 µM; in test [5], 5.82 µM; in test [6], 1.88 µM; in test [7] it was 2.04 µM. The GI50 in test [8] is 3.59 µM; in test [9], 4.24 µM; in [10] it was 3.26 µM. In addition, the TGI stood at 4.61 µM in test [1]; 8.04 µM in test [2]; 3.71 µM in [3]; 33.9 µM in [5]; 6.23 µM in test [6]; 3.6 µM in [7]. For the same compound, the TGI in test [8] came to 13.2 µM; in test [9], 20.3 µM; in test [10] it was 16.2 µM.

As for `CCOC(=O)c1[nH]c(-c2ccc(Cl)cc2)cc1-c1cccnc1`, the GI50 in test [2] was 0.391 µM; in test [3], 1.67 µM; in [4], 10.2 µM; in test [5] it was 2.36 µM; in [6], 0.868 µM; in test [8] it was 0.449 µM. In addition, the GI50 is 0.349 µM in test [9] and 0.325 µM in test [10]. Also, the TGI in test [2], in [3], in test [4], in test [5], in [6] and in test [8] was greater than 100 µM each time. The TGI in [9] and in test [10] was greater than 100 µM in each case.

With `COc1cc(/C=C2\CC3C4CC=C5C[C@@H](OC(C)=O)CC[C@]5(C)C4CC[C@]3(C)C2=O)ccc1OCCCn1ccnc1` (stereo partly specified), the GI50 in [1] was 16.8 µM; in test [3], 8.05 µM; in [5], 9.13 µM; in [6], 8.83 µM; in test [8], 9.32 µM; in test [9] it was 9.79 µM. In addition, the GI50 in test [10] was 18 µM. For the same compound, the TGI is greater than 50 µM in test [1]; 15.4 µM in [3]; 21.5 µM in test [5]; 16.4 µM in test [6]; 21.1 µM in [8]; 21.2 µM in [9]. In test [10], the TGI came out at 42.1 µM.

For `Nc1ccc2c(c1)NCCN2`, the TGI in test [1], in test [3], in test [4], in test [5], in test [6] and in test [7] was greater than 100 µM each time. Also, the TGI in [8], in [9] and in test [10] was greater than 100 µM in each case.

On to `NNc1cccc(/C=C/c2ccccc2)cc1=O`, for which the GI50 is 70.1 µM in [1]; 1.36 µM in test [2]; 4.73 µM in test [3]; 4.66 µM in [4]; 4.27 µM in [5]; 9.3 µM in [6]. Further, the GI50 is 3.61 µM in test [8], 7.35 µM in test [9] and 7.87 µM in test [10]. For the same compound, the TGI was greater than 100 µM in [1]; 29.5 µM in [2]; greater than 100 µM in test [3]; greater than 100 µM in test [4]; greater than 100 µM in test [5]; greater than 100 µM in [6]. Further, the TGI is 42.3 µM in test [8], 62.6 µM in test [9] and greater than 100 µM in test [10].

Take `Nc1ccc(S(=O)(=O)C23CC4CC(CC(C4)C2)C3)cc1`: the total growth inhibition concentration (TGI) in test [1], in test [2], in test [3], in [5], in test [6] and in test [7] was greater than 100 µM in each case. Further, the TGI in [8], in [9] and in [10] was greater than 100 µM each time.

Take `Nc1nnc2cc(Cl)ccc2n1`: the GI50 in [2], in test [3], in test [4], in [5], in test [6] and in [7] was greater than 100 µM in each case. Further, the GI50 in test [8] is greater than 100 µM; in test [9], greater than 100 µM; in test [10] it was 24.4 µM. Moreover, the TGI in [2], in test [3], in [4], in [5], in test [6] and in test [7] was greater than 100 µM in each case. Moreover, the TGI in test [8], in test [9] and in test [10] was greater than 100 µM throughout.

Turning to `CCOC(=O)C(CO)c1nc2c([nH]c1=O)c(=O)n(C)c(=O)n2C` (stereo unspecified), the TGI in test [1], in [2], in [3], in test [5], in test [6] and in test [7] was greater than 100 µM in each case. The TGI in test [8], in test [9] and in test [10] was greater than 100 µM in each case.

As to `O=S(=O)(NCC1CCC(CNc2ccc(Cl)cc2)CC1)c1ccc(-c2ccccc2)cc1` (stereo unspecified), the GI50 is greater than 50 µM in [1]; greater than 50 µM in test [2]; 15.7 µM in test [3]; greater than 50 µM in [4]; greater than 50 µM in test [5]; greater than 50 µM in test [6]. The GI50 in test [8] was 42.5 µM; in [9] it was 10.7 µM; in test [10] it was 40.9 µM. Also, the TGI in [1], in [2], in test [3], in [4], in [5] and in test [6] was greater than 50 µM each time. The TGI in [8], in test [9] and in test [10] was greater than 50 µM in each case.
